# Experiments:
# Test in all cases: X-ray crystal structure of complex
# Format in all cases: binding
# MsmUdgX [1] = biological target: T1, MsmUdgX (Mycolicibacterium smegmatis, UniProt A0QP43, H109S/R184A); conditions: uracil excised from 5-mer ssDNA TTUTT, DNA backbone not modelled; active site; pH 7.0
# T1 construct: gene MSMEG_0265; N-terminal 6xHis tag (pET14b), expressed in E. coli Rosetta (DE3), Ni-NTA and Superdex-75 purified; 4Fe-4S protein
# MsmUdgX [2] = biological target: T2, MsmUdgX (Mycolicibacterium smegmatis, UniProt A0QP43); conditions: uracil excised from 5-mer ssDNA TTUTT; active site; pH 7.0
# T2 construct: gene MSMEG_0265; N-terminal 6xHis tag (pET14b), expressed in E. coli Rosetta (DE3), Ni-NTA and Superdex-75 purified; 4Fe-4S protein
# T2 sequence (A0QP43 1-209): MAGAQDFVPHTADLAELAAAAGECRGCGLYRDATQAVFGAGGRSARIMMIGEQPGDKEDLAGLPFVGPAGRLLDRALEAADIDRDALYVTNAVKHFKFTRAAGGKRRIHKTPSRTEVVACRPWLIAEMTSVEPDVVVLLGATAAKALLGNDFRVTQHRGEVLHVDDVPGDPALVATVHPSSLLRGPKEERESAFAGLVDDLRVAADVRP
# MsmUdgX [3] = biological target: T3, MsmUdgX (Mycolicibacterium smegmatis, UniProt A0QP43, H109Q); conditions: uracil excised from 5-mer ssDNA TTUTT, DNA backbone not modelled; active site; pH 7.0
# T3 construct: gene MSMEG_0265; N-terminal 6xHis tag (pET14b), expressed in E. coli Rosetta (DE3), Ni-NTA and Superdex-75 purified; 4Fe-4S protein
# MsmUdgX [4] = biological target: T4, MsmUdgX (Mycolicibacterium smegmatis, UniProt A0QP43, H109G); conditions: uracil excised from 5-mer ssDNA TTUTT, DNA backbone not modelled; active site; pH 7.0
# T4 construct: gene MSMEG_0265; N-terminal 6xHis tag (pET14b), expressed in E. coli Rosetta (DE3), Ni-NTA and Superdex-75 purified; 4Fe-4S protein
# MsmUdgX [5] = biological target: T5, MsmUdgX (Mycolicibacterium smegmatis, UniProt A0QP43, H109A); conditions: uracil excised from 5-mer ssDNA TTUTT, DNA backbone not modelled; active site; pH 7.0
# T5 construct: gene MSMEG_0265; N-terminal 6xHis tag (pET14b), expressed in E. coli Rosetta (DE3), Ni-NTA and Superdex-75 purified; 4Fe-4S protein
# MsmUdgX [6] = biological target: T6, MsmUdgX (Mycolicibacterium smegmatis, UniProt A0QP43, H109C); conditions: uracil excised from 5-mer ssDNA TTUTT, DNA backbone not modelled; active site; pH 7.0
# T6 construct: gene MSMEG_0265; N-terminal 6xHis tag (pET14b), expressed in E. coli Rosetta (DE3), Ni-NTA and Superdex-75 purified; 4Fe-4S protein
# MsmUdgX [7] = biological target: T7, MsmUdgX (Mycolicibacterium smegmatis, UniProt A0QP43, H109K); conditions: uracil excised from 5-mer ssDNA TTUTT, DNA backbone not modelled; active site; pH 7.0
# T7 construct: gene MSMEG_0265; N-terminal 6xHis tag (pET14b), expressed in E. coli Rosetta (DE3), Ni-NTA and Superdex-75 purified; 4Fe-4S protein
# T7 sequence (A0QP43 entry or part of it H109K): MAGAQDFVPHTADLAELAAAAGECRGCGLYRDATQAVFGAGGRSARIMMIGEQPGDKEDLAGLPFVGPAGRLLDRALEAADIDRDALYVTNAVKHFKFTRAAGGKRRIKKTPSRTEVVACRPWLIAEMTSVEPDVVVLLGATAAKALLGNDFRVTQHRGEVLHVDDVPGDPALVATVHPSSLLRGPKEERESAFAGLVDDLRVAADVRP
# T4 sequence (A0QP43 entry or part of it H109G): as the sequence (A0QP43 entry or part of it H109K) above, with K109G counted along it
# T6 sequence (A0QP43 entry or part of it H109C): as the sequence (A0QP43 entry or part of it H109K) above, with K109C counted along it
# T3 sequence (A0QP43 entry or part of it H109Q): as the sequence (A0QP43 entry or part of it H109K) above, with K109Q counted along it
# T5 sequence (A0QP43 entry or part of it H109A): as the sequence (A0QP43 entry or part of it H109K) above, with K109A counted along it
# T1 sequence (A0QP43 entry or part of it H109S/R184A): as the sequence (A0QP43 entry or part of it H109K) above, with K109S, R184A counted along it
compound,measurement,setting,value
O=c1cc[nH]c(=O)[nH]1 [uracil],X-ray crystal structure of complex,MsmUdgX [1],"H109S/R184A (orange, PDB ID: 8IIT)"
same,X-ray crystal structure of complex,MsmUdgX [2],"Uracil bound in the active site of MsmUdgX, post its cleavage from the DNA backbone"
same,X-ray crystal structure of complex,MsmUdgX [3],"H109Q (green, PDB ID: 8IIP)"
same,X-ray crystal structure of complex,MsmUdgX [4],"H109G (cyan, PDB ID: 8IIL)"
same,X-ray crystal structure of complex,MsmUdgX [5],"H109A (brown, PDB ID: 8IIG), mutants with uracil in the active sites cavity"
same,X-ray crystal structure of complex,MsmUdgX [6],"H109C (magenta, PDB ID: 8III)"
same,X-ray crystal structure of complex,MsmUdgX [7],"Crystal structures of H109K (yellow, (PDB ID: 8IIN)"
